Experimental findings from US20210387983A1, “CRYSTALLINE ALK5 INHIBITORS AND USES THEREOF” (THERAVANCE BIOPHARMA R&D IP, LLC, priority 2020, published 2021) are described below.

Series [1] can be described thus: Lung PK/PD: PK study after oral aspiration. Type of series: in vivo. Conditions: C57bl/6n, mouse, lung / plasma, mice, 3% glycerol in PBS pH=4, read-out: (lung AUC0-4):(plasma AUC0-4) ratio. The method, then: C57bl/6n mice were acclimated for at least 3 days before use. On the day of the experiment, animals were grouped into sample sizes of 5 (n=10 for the TGF-β stimulated group). The compound of Formula I (formulated in 3% glycerol in PBS; pH=4) was pre-treated via oral aspiration (OA; animals are forced to aspirate solution into the lungs by covering their nose). All oral aspirations were performed using a 50 μL dosing volume and accompanied by the appropriate vehicle control groups. Following compound OA treatment, the animals were returned to their home cages and monitored. Compound pre-treatment occurred 4 hours prior to harvest for screening and dose-response studies; duration studies had variable compound pre-treatment times. One hour prior to harvest, animals were challenged via oral aspiration a second time with PBS vehicle or recombinant human TGF-β1 protein (0.01 μg per animal dissolved in 1 part 4 mM HCl and 2 parts 3% glycerol in PBS). Five minutes prior to harvest, animals were deeply anesthetized under isoflurane and euthanized via cervical dislocation. […]
Left lung lobes were harvested immediately after BALF collection. […] Following collection of the supernatant, a total protein quantification assay (Bradford) was performed to normalize the concentrations of all samples. […]
Plasma, lung and macrophage drug concentrations were quantified. […]

For series [2], the system named is syngeneic cancer models (4T1 cells, CT26 cells). As to the kind of experiment: Efficacy study in syngeneic cancer model (4T1 or CT26 cells). Type of series: in vivo, BALB/c mice. The text has this:
The compound of Formula I is expected to suppress tumor growth in syngeneic cancer models when administered alone or in combination with an immunotherapeutic agent. Six- to 8-week old BALB/c mice are used for in vivo efficacy studies in accordance with IACUC guidelines. Commercially available 4T1 cells (0.5-2.0×10^4 cells/mouse) are implanted subcutaneously into the right flanks of BALB/c mice. When the tumor reaches a palpable size of approximately 8-10 mm in diameter, the primary tumors are surgically removed, and the mice are randomly assigned to vehicle control or compound treatment groups. Alternatively, CT26 cells (0.5-2.0×10^4 cells/mouse) are injected intravenously into BALB/c mice to generate the cancer model. […]
Body weight is measured twice weekly. Following 2- to 4-weeks of treatment, the lung and liver of each animal is harvested, and the number of metastatic cells in each tissue sample determined using a clonogenic metastasis assay. […]

For series [3], the system named is monocrotaline (MCT) model of severe pulmonary hypertension. Kind of series: Efficacy study in monocrotaline model of severe pulmonary hypertension. Type of series: in vivo, Sprague-Dawley rats. As to conditions: MCT 60 mg/kg s.c.; oral aspiration, 2-weeks of treatment. The method, then: Male Sprague-Dawley rats are tagged, weighed, and randomly divided into control and MCT-treated groups. The rats in the MCT-treated group are administered a single dose of MCT (60 mg/kg, s.c.), then treated with either (1) vehicle control; (2) sildenafil (30 mg/kg, p.o., b.i.d.); or (3) the compound of Formula I at an appropriate amount and frequency (formulated in 3% glycerol in PBS; pH=4) via oral aspiration.
Following 2-weeks of treatment, the animals are anesthetized with ketamine/xylazine for terminal monitoring of pulmonary and systemic arterial pressures along with heart rate. The lungs of each animal are then harvested for histologic analysis.

Consider `C[C@@H]1CN(CCNc2cnc3ccc(-c4nc[nH]c4-c4cc(Cl)ccc4F)nc3c2)C[C@H](C)N1` [compound of Formula I, 6-(5-(5-chloro-2-fluorophenyl)-1H-imidazol-4-yl)-N-(2-((3S,5R)-3,5-dimethylpiperazin-1-yl)ethyl)-1,5-naphthyridin-3-amine], for which the Kp in series [1] is over 75. Moreover, the “lung tumor burden in combination with an immunotherapeutic agent” value in series [2] (combination with immunotherapeutic agent (e.g., pembrolizumab or durvalumab), relative to either single agent alone) is listed as “increased reduction in lung tumor burden”. In addition, the lung tumor burden result in series [2] (compound alone, oral aspiration or intranasally, 2- to 4-weeks of treatment) was “reduction in lung tumor burden”. For the same molecule, in series [3], the “progression of pulmonary hypertension” value is given as “slow, halt or reverse the progression of pulmonary hypertension”.
